# Results reported in ChEMBL document CHEMBL5715949, “Discovery of a selective irreversible BMX inhibitor for prostate cancer” (ACS Chem Biol, 2013).
# The source made the active and inactive calls. The rule behind the calls is not given here.
# Legend:
# [1] = target: Serine/threonine-protein kinase mTOR (Homo sapiens) (UniProt P42345); test: Inhibition of MTOR (unknown origin) assessed as remaining activity at 1 uM by Kinome scan method relative to control
# [2] = target: Phosphorylase b kinase gamma catalytic chain, liver/testis isoform (Homo sapiens) (UniProt P15735); test: Inhibition of PHKG2 (unknown origin) assessed as remaining activity at 1 uM by Kinome scan method relative to control
# [3] = target: Serine/threonine-protein kinase PAK 3 (Homo sapiens) (UniProt O75914); test: Inhibition of PAK3 (unknown origin) assessed as remaining activity at 1 uM by Kinome scan method relative to control
# [4] = Cytotoxicity against mouse BaF3 cells assessed growth inhibition incubated for 2 to 5 days by CellTiter-Glo assay; type: toxicity, cell-based; conditions: time 2-5 day
# [5] = test system: BaF3; test: Antiproliferative activity against mouse BaF3 cells expressing TEL-fused JAK1 assessed growth inhibition incubated for 2 to 5 days by CellTiter-Glo assay; type: functional; conditions: time 2-5 day
# [6] = test system: VCaP; test: Antiproliferative activity against human VCaP cells assessed growth inhibition incubated for 2 to 5 days by CellTiter-Glo assay; type: functional; conditions: time 2-5 day
# [7] = target: AP2-associated protein kinase 1 (Homo sapiens) (UniProt Q2M2I8); test: Inhibition of AAK1 (unknown origin) assessed as remaining activity at 1 uM by Kinome scan method relative to control
# [8] = test system: Tyrosine-protein kinase ABL1 (Homo sapiens), P00519 [T315I]; test: Inhibition of ABL1 T315I mutant (unknown origin) assessed as remaining activity at 1 uM by Kinome scan method relative to control
# [9] = target: RAC-gamma serine/threonine-protein kinase (Homo sapiens) (UniProt Q9Y243); test: Inhibition of AKT3 (unknown origin) assessed as remaining activity at 1 uM by Kinome scan method relative to control
# [10] = target: Serine/threonine-protein kinase BRSK2 (Homo sapiens) (UniProt Q8IWQ3); test: Inhibition of BRSK2 (unknown origin) assessed as remaining activity at 1 uM by Kinome scan method relative to control
# [11] = target: Cyclin-dependent kinase 7 (Homo sapiens) (UniProt P50613); test: Inhibition of CDK7 (unknown origin) assessed as remaining activity at 1 uM by Kinome scan method relative to control
# [12] = target: Receptor tyrosine-protein kinase erbB-4 (Homo sapiens) (UniProt Q15303); test: Inhibition of ERBB4 (unknown origin) assessed as remaining activity at 1 uM by Kinome scan method relative to control
# [13] = target: Vascular endothelial growth factor receptor 3 (Homo sapiens) (UniProt P35916); test: Inhibition of FLT4 (unknown origin) assessed as remaining activity at 1 uM by Kinome scan method relative to control
# [14] = target: Cyclin-G-associated kinase (Homo sapiens) (UniProt O14976); test: Inhibition of GAK (unknown origin) assessed as remaining activity at 1 uM by Kinome scan method relative to control
# [15] = target: Serine/threonine-protein kinase STK11 (Homo sapiens) (UniProt Q15831); test: Inhibition of LKB1 (unknown origin) assessed as remaining activity at 1 uM by Kinome scan method relative to control
# [16] = target: Serine/threonine-protein kinase MAK (Homo sapiens) (UniProt P20794); test: Inhibition of MAK (unknown origin) assessed as remaining activity at 1 uM by Kinome scan method relative to control
# [17] = target: Serine/threonine-protein kinase RIO3 (Homo sapiens) (UniProt O14730); test: Inhibition of RIOK3 (unknown origin) assessed as remaining activity at 1 uM by Kinome scan method relative to control
# [18] = test system: Proto-oncogene tyrosine-protein kinase receptor Ret (Homo sapiens), P07949 [V804L]; test: Inhibition of RET V804L (unknown origin) assessed as remaining activity at 1 uM by Kinome scan method relative to control
# [19] = test system: Proto-oncogene tyrosine-protein kinase receptor Ret (Homo sapiens), P07949 [V804M]; test: Inhibition of RET V804M (unknown origin) assessed as remaining activity at 1 uM by Kinome scan method relative to control
# [20] = target: Serine/threonine-protein kinase RIO1 (Homo sapiens) (UniProt Q9BRS2); test: Inhibition of RIOK1 (unknown origin) assessed as remaining activity at 1 uM by Kinome scan method relative to control
# [21] = target: Proto-oncogene tyrosine-protein kinase ROS (Homo sapiens) (UniProt P08922); test: Inhibition of ROS1 (unknown origin) assessed as remaining activity at 1 uM by Kinome scan method relative to control
# [22] = target: Serine/threonine-protein kinase SBK1 (Homo sapiens) (UniProt Q52WX2); test: Inhibition of SBK1 (unknown origin) assessed as remaining activity at 1 uM by Kinome scan method relative to control
# [23] = target: STE20-like serine/threonine-protein kinase (Homo sapiens) (UniProt Q9H2G2); test: Inhibition of SLK (unknown origin) assessed as remaining activity at 1 uM by Kinome scan method relative to control
# [24] = target: Dual specificity testis-specific protein kinase 1 (Homo sapiens) (UniProt Q15569); test: Inhibition of TESK1 (unknown origin) assessed as remaining activity at 1 uM by Kinome scan method relative to control
# [25] = target: Serine/threonine-protein kinase tousled-like 1 (Homo sapiens) (UniProt Q9UKI8); test: Inhibition of TLK1 (unknown origin) assessed as remaining activity at 1 uM by Kinome scan method relative to control
# [26] = target: Non-receptor tyrosine-protein kinase TYK2 (Homo sapiens) (UniProt P29597); test: Inhibition of TYK2 JH1 domain (unknown origin) assessed as remaining activity at 1 uM by Kinome scan method relative to control
# [27] = test system: RV-1; test: Induction of apoptosis in human RV-1 cells assessed as decrease in number of cell at 5 uM incubated for 3 days by Hoechst 33342 staining based analysis; type: functional; conditions: time 3.0 day
# [28] = test system: RV-1; test: Down regulation of BMX protein expression in human RV-1 cells expressing BMX C496S mutant at 5 uM incubated for 72 hrs by western blot analysis; type: functional, cell-based
# [29] = test system: RV-1; test: Antiproliferative activity against human RV-1 cells assessed as reduction in cell viability at 500 to 2500 nM incubated for 5 days in presence of erlotinib by CellTiter-Glo assay; type: functional, cell-based; conditions: dose 500-2500 nM, time 5.0 day
# [30] = Induction of cell cycle arrest in human RV-1 cells assessed as accumulation of cells at S phase at 2.5 uM incubated for 5 days in presence of MK2206 by propidium iodide staining based flow cytometric analysis (reference value: 28.9 %); type: functional; conditions: time 5 day
# [31] = Inhibition of PI3K/AKT/mTOR signalling pathway in human RV-1 cells assessed as decrease in AKT phosphorylation at S473 residue at 2.5 uM incubated for 4 hrs by immunoblot analysis; type: cell-based
# [32] = Inhibition of PI3K/AKT/mTOR signalling pathway in human RV-1 cells assessed as decrease in AKT phosphorylation at T308 residue at 2.5 uM incubated for 5 days by immunoblot analysis; type: cell-based; conditions: time 5.0 day
# [33] = Inhibition of PI3K/AKT/mTOR signalling pathway in human RV-1 cells assessed as decrease in S6K phosphorylation at T389 residue at 2.5 uM incubated for 5 days in presence of MK2206 by immunoblot analysis; type: cell-based; conditions: time 5.0 day
# Chain of Proto-oncogene tyrosine-protein kinase ROS (Homo sapiens) (P08922 whole entry): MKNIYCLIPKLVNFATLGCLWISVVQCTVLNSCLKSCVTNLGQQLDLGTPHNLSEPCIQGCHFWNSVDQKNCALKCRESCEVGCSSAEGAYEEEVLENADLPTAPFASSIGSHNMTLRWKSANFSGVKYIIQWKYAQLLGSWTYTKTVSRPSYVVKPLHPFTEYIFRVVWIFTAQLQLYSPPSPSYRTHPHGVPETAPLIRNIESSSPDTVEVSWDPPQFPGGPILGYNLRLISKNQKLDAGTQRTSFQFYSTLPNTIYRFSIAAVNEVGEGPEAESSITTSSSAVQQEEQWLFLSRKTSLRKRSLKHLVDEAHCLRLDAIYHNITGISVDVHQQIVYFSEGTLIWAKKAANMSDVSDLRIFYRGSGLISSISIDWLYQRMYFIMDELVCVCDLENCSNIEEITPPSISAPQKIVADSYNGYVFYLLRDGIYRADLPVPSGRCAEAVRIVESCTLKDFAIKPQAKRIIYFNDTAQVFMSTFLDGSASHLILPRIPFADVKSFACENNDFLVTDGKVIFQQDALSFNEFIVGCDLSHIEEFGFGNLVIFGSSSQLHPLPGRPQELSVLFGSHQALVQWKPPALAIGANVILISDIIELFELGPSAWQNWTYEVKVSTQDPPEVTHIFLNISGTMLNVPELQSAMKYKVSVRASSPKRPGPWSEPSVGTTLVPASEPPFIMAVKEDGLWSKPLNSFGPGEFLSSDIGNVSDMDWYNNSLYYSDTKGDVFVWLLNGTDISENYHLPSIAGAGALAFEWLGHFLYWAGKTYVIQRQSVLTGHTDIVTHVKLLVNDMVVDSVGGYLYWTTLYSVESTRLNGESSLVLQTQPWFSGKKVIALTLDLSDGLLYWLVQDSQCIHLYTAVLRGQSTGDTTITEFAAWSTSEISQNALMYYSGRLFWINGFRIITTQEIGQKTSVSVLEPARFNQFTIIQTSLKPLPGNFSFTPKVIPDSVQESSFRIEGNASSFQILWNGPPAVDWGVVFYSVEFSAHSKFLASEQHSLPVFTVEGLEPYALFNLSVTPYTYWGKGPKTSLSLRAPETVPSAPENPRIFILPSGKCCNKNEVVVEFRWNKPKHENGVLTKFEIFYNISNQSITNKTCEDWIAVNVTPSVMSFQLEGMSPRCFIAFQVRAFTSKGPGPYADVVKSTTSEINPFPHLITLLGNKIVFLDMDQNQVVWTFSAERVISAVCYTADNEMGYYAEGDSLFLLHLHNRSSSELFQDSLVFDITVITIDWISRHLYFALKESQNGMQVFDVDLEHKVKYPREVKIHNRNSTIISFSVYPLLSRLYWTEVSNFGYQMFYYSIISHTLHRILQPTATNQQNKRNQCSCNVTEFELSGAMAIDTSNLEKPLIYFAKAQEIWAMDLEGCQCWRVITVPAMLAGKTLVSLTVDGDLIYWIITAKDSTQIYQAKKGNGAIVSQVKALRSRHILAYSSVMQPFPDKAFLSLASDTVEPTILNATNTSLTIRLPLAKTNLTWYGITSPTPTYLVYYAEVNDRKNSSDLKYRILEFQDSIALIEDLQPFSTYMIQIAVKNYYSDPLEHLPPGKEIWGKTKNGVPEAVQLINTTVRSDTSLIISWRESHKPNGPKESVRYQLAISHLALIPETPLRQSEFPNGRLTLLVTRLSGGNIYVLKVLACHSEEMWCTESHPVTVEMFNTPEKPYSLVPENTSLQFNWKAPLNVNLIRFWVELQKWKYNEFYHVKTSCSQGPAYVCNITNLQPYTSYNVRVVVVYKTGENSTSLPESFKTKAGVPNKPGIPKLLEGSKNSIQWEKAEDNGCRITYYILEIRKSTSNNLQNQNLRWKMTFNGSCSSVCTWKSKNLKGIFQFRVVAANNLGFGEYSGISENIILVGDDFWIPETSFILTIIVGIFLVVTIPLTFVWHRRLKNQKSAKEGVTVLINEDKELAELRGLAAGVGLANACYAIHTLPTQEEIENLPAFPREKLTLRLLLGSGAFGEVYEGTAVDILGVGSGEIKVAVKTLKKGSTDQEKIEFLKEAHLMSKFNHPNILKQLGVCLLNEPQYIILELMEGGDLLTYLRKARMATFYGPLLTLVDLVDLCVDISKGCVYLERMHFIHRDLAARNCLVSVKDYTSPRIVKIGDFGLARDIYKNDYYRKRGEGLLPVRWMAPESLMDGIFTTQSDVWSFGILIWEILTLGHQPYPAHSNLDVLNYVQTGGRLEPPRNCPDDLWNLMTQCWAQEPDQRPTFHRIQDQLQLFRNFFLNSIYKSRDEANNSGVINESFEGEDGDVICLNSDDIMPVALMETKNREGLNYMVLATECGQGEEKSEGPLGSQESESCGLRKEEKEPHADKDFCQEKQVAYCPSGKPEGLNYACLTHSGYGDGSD
# Chain of Serine/threonine-protein kinase STK11 (Homo sapiens) (Q15831 whole entry): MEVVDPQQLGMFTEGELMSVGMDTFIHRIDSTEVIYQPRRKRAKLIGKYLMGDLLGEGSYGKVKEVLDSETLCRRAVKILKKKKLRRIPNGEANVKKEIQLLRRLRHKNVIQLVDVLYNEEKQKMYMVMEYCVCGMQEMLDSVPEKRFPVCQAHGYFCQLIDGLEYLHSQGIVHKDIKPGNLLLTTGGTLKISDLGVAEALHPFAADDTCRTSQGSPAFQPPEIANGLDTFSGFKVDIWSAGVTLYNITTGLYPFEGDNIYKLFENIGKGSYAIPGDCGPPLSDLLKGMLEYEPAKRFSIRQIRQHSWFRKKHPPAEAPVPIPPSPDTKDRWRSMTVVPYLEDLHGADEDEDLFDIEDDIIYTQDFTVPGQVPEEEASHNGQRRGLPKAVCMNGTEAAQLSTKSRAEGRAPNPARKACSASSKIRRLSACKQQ
# Chain of Serine/threonine-protein kinase tousled-like 1 (Homo sapiens) (Q9UKI8 whole entry, the tested form may be a part): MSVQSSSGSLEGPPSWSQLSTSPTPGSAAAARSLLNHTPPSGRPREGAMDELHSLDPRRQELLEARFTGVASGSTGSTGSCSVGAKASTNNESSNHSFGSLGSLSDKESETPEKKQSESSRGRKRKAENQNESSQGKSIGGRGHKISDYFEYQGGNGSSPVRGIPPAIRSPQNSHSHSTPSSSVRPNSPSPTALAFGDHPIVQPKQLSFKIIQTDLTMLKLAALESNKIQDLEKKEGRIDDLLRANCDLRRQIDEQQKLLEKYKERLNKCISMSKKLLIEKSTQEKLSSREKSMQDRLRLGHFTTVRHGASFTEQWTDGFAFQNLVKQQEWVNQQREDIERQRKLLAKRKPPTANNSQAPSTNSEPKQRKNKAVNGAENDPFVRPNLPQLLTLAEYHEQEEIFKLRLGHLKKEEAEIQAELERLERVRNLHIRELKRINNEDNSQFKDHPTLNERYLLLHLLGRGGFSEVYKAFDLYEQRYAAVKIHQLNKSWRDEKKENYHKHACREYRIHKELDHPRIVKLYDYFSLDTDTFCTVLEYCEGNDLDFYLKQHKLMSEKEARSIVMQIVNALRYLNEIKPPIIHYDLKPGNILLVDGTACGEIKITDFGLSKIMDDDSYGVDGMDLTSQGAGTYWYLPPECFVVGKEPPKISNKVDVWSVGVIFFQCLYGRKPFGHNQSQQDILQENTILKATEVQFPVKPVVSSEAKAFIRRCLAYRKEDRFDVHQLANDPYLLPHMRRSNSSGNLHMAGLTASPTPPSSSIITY
# Chain of Serine/threonine-protein kinase SBK1 (Homo sapiens) (Q52WX2 whole entry): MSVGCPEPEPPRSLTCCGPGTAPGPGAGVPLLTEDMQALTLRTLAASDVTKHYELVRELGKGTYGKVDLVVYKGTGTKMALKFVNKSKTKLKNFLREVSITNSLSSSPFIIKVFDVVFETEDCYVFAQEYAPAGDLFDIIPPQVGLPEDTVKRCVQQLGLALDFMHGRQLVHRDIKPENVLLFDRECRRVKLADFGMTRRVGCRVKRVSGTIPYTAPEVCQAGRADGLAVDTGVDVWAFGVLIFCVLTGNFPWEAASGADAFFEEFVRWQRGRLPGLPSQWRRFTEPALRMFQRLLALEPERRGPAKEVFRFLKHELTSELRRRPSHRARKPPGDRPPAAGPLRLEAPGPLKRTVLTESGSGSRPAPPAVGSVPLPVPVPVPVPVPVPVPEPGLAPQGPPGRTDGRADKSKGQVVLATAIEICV
# Chain of Serine/threonine-protein kinase MAK (Homo sapiens) (P20794 whole entry): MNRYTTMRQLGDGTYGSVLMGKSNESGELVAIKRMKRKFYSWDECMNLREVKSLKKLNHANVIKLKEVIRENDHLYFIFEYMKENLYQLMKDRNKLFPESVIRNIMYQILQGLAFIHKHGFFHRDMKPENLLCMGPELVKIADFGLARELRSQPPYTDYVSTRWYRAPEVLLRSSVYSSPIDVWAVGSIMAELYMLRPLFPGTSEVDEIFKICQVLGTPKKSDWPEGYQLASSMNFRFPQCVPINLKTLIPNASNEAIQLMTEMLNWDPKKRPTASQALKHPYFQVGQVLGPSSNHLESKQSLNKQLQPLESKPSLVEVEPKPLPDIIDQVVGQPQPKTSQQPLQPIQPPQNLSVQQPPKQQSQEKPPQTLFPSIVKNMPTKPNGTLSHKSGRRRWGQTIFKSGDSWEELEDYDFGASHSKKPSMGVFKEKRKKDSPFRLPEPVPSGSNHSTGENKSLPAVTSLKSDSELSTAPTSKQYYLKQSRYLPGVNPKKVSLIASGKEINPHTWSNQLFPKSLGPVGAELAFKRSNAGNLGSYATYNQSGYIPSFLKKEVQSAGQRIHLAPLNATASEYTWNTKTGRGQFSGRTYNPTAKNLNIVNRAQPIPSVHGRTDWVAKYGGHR
# Chain of Cyclin-dependent kinase 7 (Homo sapiens) (P50613 whole entry): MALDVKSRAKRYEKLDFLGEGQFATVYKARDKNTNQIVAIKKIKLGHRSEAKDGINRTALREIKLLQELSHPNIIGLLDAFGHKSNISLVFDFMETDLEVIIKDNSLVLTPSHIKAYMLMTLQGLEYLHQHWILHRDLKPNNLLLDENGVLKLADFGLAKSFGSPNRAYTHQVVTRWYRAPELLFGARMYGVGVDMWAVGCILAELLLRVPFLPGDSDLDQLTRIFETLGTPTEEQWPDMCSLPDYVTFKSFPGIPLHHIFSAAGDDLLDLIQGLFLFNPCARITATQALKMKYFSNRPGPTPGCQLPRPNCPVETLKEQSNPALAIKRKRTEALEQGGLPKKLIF
smiles,measurement,setting,value
C=CC(=O)Nc1cc(-n2c(=O)ccc3cnc4ccc(-c5ccc(NS(C)(=O)=O)cc5)cc4c32)ccc1C,Activity,[1],45%
same,Activity,[2],74%
same,Activity,[3],92%
same,GI50,[4],> 10 µM
same,GI50,[5],4.92 µM
same,GI50,[6],2.46 µM
same,Activity,[7],93%
same,Activity,[8],87%
same,Activity,[9],75%
same,Activity,[10],84%
same,Activity,[11],79%
same,Activity,[12],78%
same,Activity,[13],72%
same,Activity,[14],74%
same,Activity,[15],79%
same,Activity,[16],70%
same,Activity,[17],55%
same,Activity,[18],79%
same,Activity,[19],85%
same,Activity,[20],20%
same,Activity,[21],81%
same,Activity,[22],4.6%
same,Activity,[23],59%
same,Activity,[24],94%
same,Activity,[25],86%
same,Activity,[26],80%
same,Activity,[27],Active
same,Activity,[28],Active
same,Activity,[29],Active
same,Activity,[30],24.3%
same,inhibition,[31],inactive
same,inhibition,[32],Active
same,inhibition,[33],Active
